Results from US10828378B2, “Nucleic acid construct for expression of oxidative stress indicator and use thereof” (Riken, priority 2011, dated 2020).
Counter-ions that a name gives are not always drawn.

Tests used:
[1] = tested on: OKD48-Luc reporter (Keap1-Nrf2 pathway); assay: Dual luciferase assay using the OKD48-Luc reporter in HeLa cells; format: cell-based, human; settings: for response of HeLa cells containing OKD48-Luc (luciferase assay): 8 h or 16 h, 10 μM ASN, 100 μM DEM, 2.5 μg/ml tunicamycin, 1 μM thapsigargin, 1 mM DTT, 100 μM etoposide, 100 μg/ml TTFA, FIG. 5A
Experimental: HeLa cells or HEK293T cells were cultured in a DMEM medium supplemented with 100 U/ml penicillin, 100 μg/ml streptomycin, and 10% fetal bovine serum at 37° C. in an atmosphere containing 5% CO2. The plasmid DNAs were inserted into the cells of each line using the calcium phosphate-DNA precipitation method. In order to test cellular response to agents, the cells were treated with 10 μM sodium arsenite (ASN), 100 μM diethyl maleate (DEM), 200 μM H2O2, 2.5 μg/ml tunicamycin, 1 μM thapsigargin, 1 mM DTT, 100 μM etoposide, or 100 μg/ml thenoyltrifluoroacetone (TTFA) over varying times.
In dual luciferase assay using the OKD48-Luc reporter, phRL-TK (Promega Corp.) was used as an internal control. The HeLa cells were seeded on a 24-well plate and then transfected with the plasmid DNAs. At 24 hours after the transfection, the cells were lysed for luciferase assay. Each reporter activity was measured using a luciferase assay system (Promega Corp.) and a luminometer (Berthold Japan Co., Ltd.). The results were shown as mean±SEM of three experiments. Each value was indicated in terms of fold induction. This fold induction was normalized for that of an untreated sample (NT) (FIG. 5A), an untreated sample (NT) free from Nrf2 overexpression (FIG. 5D), or an untreated sample (NT) free from Keap1 overexpression (FIG. 5E). In this calculation, the fold induction of each NT was defined as 1.0.

OKD48-Luc = assay: Western blot of OKD48-Luc protein with anti-Luc antibody in HEK293T cells; format: cell-based, human; settings: 8 h treatment, FIG. 5B
Experimental: (§1) HeLa cells were transfected with the OKD48 construct. Luciferase assay was conducted after treatment for 8 hours or 16 hours in the presence or absence of different stressors (sodium arsenite (ASN), diethyl maleate (DEM), H2O2, tunicamycin (Tun), thapsigargin (Tg), dithiothreitol (DTT), etoposide (Etp), and thenoyltrifluoroacetone (TTFA)). […] HEK293T cells were transfected with the OKD48 construct and treated for 8 hours in the presence or absence of different stressors. The cell lysates were analyzed by Western blotting using an anti-Luc antibody or an anti-GAPDH antibody. […] HeLa cells were treated for 8 hours or 16 hours in the presence or absence of different stressors. Then, the cell lysates were analyzed by Western blotting using an anti-Luc antibody or an anti-GAPDH antibody. […]
(§2) The cells were lysed in an SDS sample buffer (50 mM Tris-HCl (pH 6.8), 2% SDS, 50 mM DTT, 10% glycerol, and 1 μg/ml bromophenol blue). […] After the electrophoresis, the proteins were electrically transferred to a polyvinylidene fluoride porous membrane and immunologically detected by a standard approach using a monoclonal antibody against luciferase (Promega Corp.), a monoclonal antibody against GFP (Nacalai Tesque, Inc.), a monoclonal antibody against GAPDH (Cell Signaling Technology, Inc.), or a polyclonal antibody against Nrf2 (Santa Cruz Biotechnology, Inc.).

endogenous Nrf2 = assay: Western blot of endogenous Nrf2 in HeLa cells; format: cell-based, human; settings: 8 h or 16 h treatment, FIG. 5C
Experimental: as §1, §2

OKD48-transgenic mouse = assay: In vivo luminescence imaging of OKD48-transgenic mouse; settings: 12.5 mg/kg intraperitoneal, 6 hours later
Experimental: The 4.5-kb Spel-SfiI fragment of p(3×ARE)TKbasal-hNrf2(1-433)-GL4-Flag was microinjected as a transgene into the fertilized eggs of a C57BL/6 mouse. […] The obtained mouse was used for in vivo imaging assay. After intraperitoneal injection of D-luciferin (4.5 mg), the mouse was analyzed according to a standard protocol using an in vivo imaging system IVIS (Xenogen Corp.). The experimental protocol involving the animal was approved by the animal research committee of RIKEN (Japan).
In order to monitor oxidative stress in vivo, an OKD48-transgenic mouse having a 3×ARE-driven Nrf2(1-433)-Luc expression gene was prepared. In order to confirm that cells placed under oxidative stress were able to be effectively used in vivo, ASN inducing oxidative stress in various tissues or organs was intraperitoneally injected (12.5 mg/kg) to a transgenic mouse.

OKD48-Venus reporter = assay: Fluorescence imaging of OKD48-Venus reporter in HEK293T cells; format: cell-based, human; settings: 8 h treatment, FIG. 7A
Experimental: HEK293T cells were transfected with the OKD48-Venus construct and then treated for 8 hours in the presence or absence of sodium arsenite (ASN) or diethyl maleate. Their fluorescence images were obtained together with phase-contrast images. […] HEK293T cells were transfected with the OKD48-Venus construct and then treated for 8 hours in the presence or absence of sodium arsenite (ASN), diethyl maleate (DEM), H2O2, tunicamycin (Tun), thapsigargin (Tg), dithiothreitol (DTT), etoposide (Etp), or thenoyltrifluoroacetone (TTFA). Fluorescence from their cell lysates was measured and normalized for luciferase in the cotransfected cells. In the diagram, n.d. represents not detected. […] Their cell lysates were analyzed by Western blotting using an anti-GFP antibody or an anti-GAPDH antibody. […]
In order to take images of the cells, the HEK293T cells were seeded over a 6-well plate and then transfected with the plasmid DNAs. At 24 hours after the transfection, fluorescence images were obtained using FSX100 (Olympus Corp.). In order to measure the fluorescence of cell lysates, the cells were lysed in a digitonin buffer (50 mM Tris-HCl (pH 7.5), 1 mM EDTA, 10 mM EGTA, and 10 μM digitonin) at 37° C. for 30 minutes. […] The fluorescence intensity of each sample was normalized against the activity of luciferase derived from the cotransfected cells. […]

O[C@H](CS)[C@H](O)CS (racemic) [dithiothreitol]
response of HeLa cells containing OKD48-Luc (luciferase assay) [1]: rarely activated

O=[As]O [ASN, sodium arsenite]
OKD48-Luc at the protein level (Western blot, anti-Luc antibody) (OKD48-Luc): rise | induction of endogenous Nrf2 (Western blot) (endogenous Nrf2): significantly induced | luminescence in the liver (OKD48-transgenic mouse; abdominal section, FIG. 8): strong luminescence | luminescence in other tissues or organs (e.g., stomach and kidney) (OKD48-transgenic mouse; data not shown): detected to some extent | fluorescence of OKD48-Venus under microscopic observation (OKD48-Venus reporter): emitted fluorescence | activity of OKD48-Luc under Nrf2 overexpression, effect of stressor treatment ([1]; HeLa cells with Nrf2 overexpression, 8 h treatment, FIG. 5D): slightly increased | response of HeLa cells containing OKD48-Luc (luciferase assay) [1]: specifically responded

CCOC(=O)/C=C\C(=O)OCC [DEM, diethyl maleate]
OKD48-Luc at the protein level (Western blot, anti-Luc antibody) (OKD48-Luc): rise | induction of endogenous Nrf2 (Western blot) (endogenous Nrf2): significantly induced | fluorescence of OKD48-Venus under microscopic observation (OKD48-Venus reporter): emitted fluorescence | response of HeLa cells containing OKD48-Luc (luciferase assay) [1]: specifically responded

COc1cc([C@@H]2c3cc4c(cc3[C@@H](O[C@@H]3O[C@@H]5CO[C@@H](C)O[C@H]5[C@H](O)[C@H]3O)[C@H]3COC(=O)[C@H]23)OCO4)cc(OC)c1O [etoposide]
response of HeLa cells containing OKD48-Luc (luciferase assay) [1]: rarely activated

C/C=C(/C)C(=O)O[C@H]1C(C)=C2[C@H]([C@@H]1OC(=O)CCCCCCC)[C@@](C)(OC(C)=O)C[C@H](OC(=O)CCC)[C@@]1(O)[C@H]2OC(=O)[C@@]1(C)O [thapsigargin]
response of HeLa cells containing OKD48-Luc (luciferase assay) [1]: rarely activated

O=C(CC(=O)C(F)(F)F)c1cccs1 [thenoyltrifluoroacetone]
response of HeLa cells containing OKD48-Luc (luciferase assay) [1]: rarely activated

tunicamycin
response of HeLa cells containing OKD48-Luc (luciferase assay) [1]: rarely activated
